Test results as given in US20260256752A1, “HIGHLY WATER SOLUBLE SCHIFF BASE PRODRUGS OF BENZALDEHYDE ALLOSTERIC MODULATORS” (ILLEXCOR HOLDINGS, LLC, priority 2022, published 2026).
“Also recorded” adds a separate entry of the source.

How the values were obtained:
[1] = test system: blood suspensions from humans with homozygous SCD; assay: Oxygen-independent sickle inhibition under anoxia (100% nitrogen) in SS blood suspensions; assay type: cell-based, human
Description: All compounds (Comp 1-13) and comparator molecules (VZHE-039, PP-14, INN-310, and Voxelotor) were evaluated following established procedures (Abdulmalik et al., 2005, 2020; Pagare et al., 2020). Blood samples from individual donors with homozygous SCD (obtained with informed consent) were diluted using Hemox buffer solution with the addition of glucose (10 mM) and BSA (0.2%) to adjust hematocrit of the blood suspensions to 20%, which standardizes the procedure to normalize the ratio of RBCs to drug, for assay consistency and reproducibility. Briefly, blood suspensions were incubated under room air in the presence of various concentrations of test compounds (0-2 mM) at 37° C. for 1 hour in 96-well round bottom plates. Subsequently, the suspensions were incubated with a hypoxic gas mixture (2.5% Oxygen gas/balance Nitrogen gas) at 37° C. for up to 2 hours prior to fixation with 2% glutaraldehyde solution without exposure to air. The fixated blood aliquots were evaluated by microscopic morphological analysis (image analysis on Image J software) to identify the proportion of sickled and non-sickled RBCs, and sickle inhibition calculated based on the % change from negative control (DMSO).
To establish oxygen-independent sickle inhibition, the incubation chamber was subsequently opened and exposed to room air for 15 minutes to ensure complete re-oxygenation and reversal of the sickled cells to normal round cells. Reversal was confirmed by microscopy. The incubation chamber was then closed, and the assay was repeated with incubation in 100% nitrogen gas for 1 hour (for screening), or up to 2.5 h (for time-course studies), with collection and fixation of blood aliquots at defined intervals. Aliquot samples were again subjected to microscopic morphological analysis of bright field images to identify the proportion of sickled and non-sickled cells, and sickle inhibition calculated.

Hb = molecular target: T1, Hb (Homo sapiens, UniProt P69905); assay: Occupancy/dose-dependent p50 shift in human non-sickle blood; assay type: biochemical; conditions: compared to Voxelotor at equivalent drug-Hb occupancy levels
T1 construct: as separate independent studies with non-sickle blood; from tissue; host or cells: non-sickling AA blood (red blood cells)
Description: Non-sickling human blood was incubated with test compounds at 0.25-2 mM concentrations at 37° C. for 1 hour in 96-well round bottom plates. At conclusion, RBCs were washed once with PBS, followed by lysis with deionized water. Approximately 100 μl aliquots of individual lysates were added to 3 mL of 0.1M potassium phosphate buffer, pH 7.0 in a cuvette and subjected to hemoximetry analysis using a Hemox™ Analyzer (TCS Scientific Corp.) as previously described. (Abdulmalik et al., 2020; Pagare et al., 2020) Change in p50 values (Δp50) was calculated by subtracting the p50 values of treated samples from the value of the control sample and expressing the difference as a percentage of control p50 values.

[2] = 14-day repeat-dose oral pharmacokinetics in rats; assay type: in vivo, male and female SD rats; conditions: oral 100 mg/kg for 14 days, Day 14
Description: (§1) Repeat oral doses of each compound were administered by oral gavage for 14 days to male and female SD rats (n=3). […] Steady state exposures for the final dosing interval on Day 14 were similar to total compound exposure from single-dose PK.
(§2) Repeat doses of each compound were administered once daily as oral suspensions by gavage in 0.5% carboxy methylcellulose for 14 days at 100 mg/kg. Whole blood was collected at 7 time-points for up to 24 hours during the final dosing interval on Day 14. Clinical observations, body weights, and food consumption were recorded throughout the 14 day study. Clinical chemistry and hematologic parameters were assessed, and histopathology was performed on organs after 14 days of exposure to study drug.

[3] = 14-day repeat-dose safety (clinical observations, histopathology) in rats; assay type: in vivo, male and female SD rats; conditions: for safety in non-clinical toxicology (in words): above anticipated therapeutic drug levels; for clinical or histopathologic changes after 14 days of exposure: rats, oral 100 mg/kg once daily for 14 days
Description: as §1, §2

[4] = Single-dose oral pharmacokinetics in rats; assay type: in vivo, male Sprague Dawley (SD) rats; conditions: rat whole blood; single oral dose 100 mg/kg
Description: Single-dose pharmacokinetics (PK) in male Sprague Dawley (SD) rats (n=4) were assessed for each compound, and the maximum or peak whole blood concentration and area under the curve are shown in Table 5.
Single doses of each compound were administered as oral suspensions by gavage in 0.5% carboxy methylcellulose at 100 mg/kg. Whole blood levels were collected for at least 72 hours after dose administration. Bioanalyses were performed with liquid chromatography-tandem mass spectrometry […].

[5] = ADME / bioavailability assessment
[6] = most patients with SCD; cited from earlier work
[7] = female rats, read-out: Cmax [μM] female
[8] = male rats, read-out: Cmax [μM] male

T1 sequence (P69905 2-142 limits assumed): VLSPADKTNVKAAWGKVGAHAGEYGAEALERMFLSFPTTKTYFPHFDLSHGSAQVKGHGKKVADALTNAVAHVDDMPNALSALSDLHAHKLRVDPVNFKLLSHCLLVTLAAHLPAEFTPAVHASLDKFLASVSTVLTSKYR
T1 sequence (P68871 2-147 partner limits assumed): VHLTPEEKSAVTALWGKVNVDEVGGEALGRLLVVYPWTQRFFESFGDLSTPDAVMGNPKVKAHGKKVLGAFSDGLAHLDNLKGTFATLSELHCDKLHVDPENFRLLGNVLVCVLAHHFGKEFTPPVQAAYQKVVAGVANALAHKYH

Row | Structure (SMILES) | polymer destabilizing effects / sickle inhibition in anoxia (in words) [1] | AUC0-∞ [μM*h] female ([2]; female rats) | Cmax [2, 7] | AUC0-∞ [μM*h] male ([2]; male rats) | Cmax [2, 8] | AUC0-∞ [μM*h] [4] | Cmax [4] | also measured
1 | O=Cc1c(O)cccc1OCc1cccnc1 [Comp 1, 2-hydroxy-6-(pyridin-3-ylmethoxy)benzaldehyde] | most potent polymer destabilizers discovered to date; also recorded: most potent and sustained polymer destabilizing effects observed to date | 8,085 μM*h | 534 µM | 10,490 μM*h | 703 µM | 17,415 μM*h | 919 µM | changes in p50 of Hb in human blood (in words) (Hb): relatively weak changes in p50; safety in non-clinical toxicology (in words) [3]: without hepatotoxicity; clinical or histopathologic changes after 14 days of exposure [3]: No clinical or histopathologic changes; absorption, distribution, metabolism and elimination (ADME) properties (in words) [5]: acceptable absorption, distribution, metabolism and elimination (ADME) properties without metabolic lability
2 | O=Cc1c(O)cccc1OCc1ccccn1 [Comp 2, 2-hydroxy-6-(pyridin-2-ylmethoxy)benzaldehyde] | most potent polymer destabilizers discovered to date; also recorded: most potent and sustained polymer destabilizing effects observed to date | 21,547 μM*h | 1110 µM | 20,363 μM*h | 1110 µM | 19,822 μM*h | 958 µM | changes in p50 of Hb in human blood (in words) (Hb): relatively weak changes in p50; Cmax (ng/ml) female ([2]; female rats): 254,382 ng/ml; safety in non-clinical toxicology (in words) [3]: without hepatotoxicity; clinical or histopathologic changes after 14 days of exposure [3]: No clinical or histopathologic changes; absorption, distribution, metabolism and elimination (ADME) properties (in words) [5]: acceptable absorption, distribution, metabolism and elimination (ADME) properties without metabolic lability
3 | O=Cc1c(O)cccc1OCc1cncc(F)c1 [Comp 4, 2-((5-fluoropyridin-3-yl)methoxy)-6-hydroxybenzaldehyde] |  |  |  |  |  | 3,360 μM*h | 242 µM | 
4 | O=Cc1c(O)cccc1OCc1ncccc1F [Comp 5, 2-((3-fluoropyridin-2-yl)methoxy)-6-hydroxybenzaldehyde] |  | 20,566 μM*h | 993 µM | 17,073 μM*h | 854 µM | 12,047 μM*h | 348 µM | changes in p50 of Hb in human blood (in words) (Hb): relatively weak changes in p50; safety in non-clinical toxicology (in words) [3]: without hepatotoxicity; clinical or histopathologic changes after 14 days of exposure [3]: No clinical or histopathologic changes; absorption, distribution, metabolism and elimination (ADME) properties (in words) [5]: acceptable absorption, distribution, metabolism and elimination (ADME) properties without metabolic lability
5 | O=Cc1c(O)cccc1OCc1cccnc1F [Comp 6, 2-((2-fluoropyridin-3-yl)methoxy)-6-hydroxybenzaldehyde] |  |  |  |  |  |  | 49 µM | AUC0-∞ [4]: 728 µM·h
6 | O=Cc1c(O)cccc1OCc1ncccc1Cl [Comp 8, 2-((3-chloropyridin-2-yl)methoxy)-6-hydroxybenzaldehyde] |  |  |  |  |  | 1,022 μM*h | 76 µM | 
7 | O=Cc1c(F)cc(F)cc1OCc1ccccn1 [Comp 9, 2,4-difluoro-6-(pyridin-2-ylmethoxy)benzaldehyde] | completely negates the polymer destabilization effects |  |  |  |  |  |  | 
8 | O=Cc1c(O)cccc1OCc1cncnc1 [Comp 10, 2-hydroxy-6-(pyrimidin-5-ylmethoxy)benzaldehyde] |  |  |  |  |  | 3,011 μM*h | 157 µM | 
9 | O=Cc1c(OCc2cccnc2)ccc(F)c1O [Comp 12, 3-fluoro-2-hydroxy-6-(pyridin-3-ylmethoxy)benzaldehyde] | significantly reduced the potency of polymer inhibition |  |  |  |  |  |  | 
10 | O=Cc1c(F)cc(F)cc1OCc1ncccc1F [Comp 13, 2,4-difluoro-6-((3-fluoropyridin-2-yl)methoxy)benzaldehyde] | completely negates the polymer destabilization effects |  |  |  |  |  |  | 
11 | COc1ccc(OCc2ccccn2)c(C=O)c1 [INN-310, reference compound] | only weak potency in anoxia |  |  |  |  |  |  | 
12 | O=Cc1c(O)cccc1OCc1ccccc1 [Reference A, 2-(benzyloxy)-6-hydroxybenzaldehyde, reference compound] | exhibits potent polymer destabilizing effects |  |  |  |  |  |  | bioavailability (in words) [5]: not bioavailable
13 | O=Cc1c(O)cccc1OCc1cccc(CO)n1 [VZHE-039, reference compound] |  | 12,188 μM*h | 894 µM | 11,585 μM*h | 753 µM | 8,782 μM*h | 394 µM | clinical or histopathologic changes after 14 days of exposure [3]: Both clinical and histopathologic changes in the liver, including hepatocyte necrosis
14 | CC(C)n1nccc1-c1ncccc1COc1cccc(O)c1C=O [Voxelotor, reference compound] | did not demonstrate any sickle inhibition | 7,617 μM*h | 548 µM | 6,760 μM*h | 422 µM |  |  | increase in Hb concentrations [6]: at least 1 g/dl
